Assay results published in article PMC10790750, “A widespread methylotroph acyl-homoserine lactone synthase produces a new quorum sensing signal that regulates swarming in Methylobacterium fujisawaense” (mBio, 2023).
Like-named read-outs stand apart in the source and are kept apart here.

Key:
Assay type in all cases: cell-based
MmaR (MmaRDSM5686) = target: T1, MmaR (MmaRDSM5686) (Methylobacterium fujisawaense, UniProt A0ABR6DCX3); assay: mScarlet reporter activation in M. extorquens AWP370
T1 construct: gene GGQ91_003337; mmaR inserted in genome of Methylorubrum extorquens AWP227 (mlaR/mlaI deleted) under native mlaR promoter; reporter strain AWP370 with mmaI promoter-mScarlet

MmaI (Ga0373204_3345) = target: T2, MmaI (Ga0373204_3345) (Methylobacterium fujisawaense, UniProt A0ABR6DCY1); assay: LC-MS/MS, NMR of culture extract; deletion mutant control; conditions: native strain grown on methanol
T2 construct: gene GGQ91_003338; native expression in DSM5686; deletion mutant as control

Mrad2831_5763 (MmaI) = target: T3, Mrad2831_5763 (MmaI) (Methylobacterium radiotolerans, UniProt B1M2Q9); assay: LC-MS/MS of culture extract after heterologous expression; conditions: product identified by m/z, retention time and fragmentation
T3 construct: heterologously expressed
T3 sequence (B1M2Q9 1-207): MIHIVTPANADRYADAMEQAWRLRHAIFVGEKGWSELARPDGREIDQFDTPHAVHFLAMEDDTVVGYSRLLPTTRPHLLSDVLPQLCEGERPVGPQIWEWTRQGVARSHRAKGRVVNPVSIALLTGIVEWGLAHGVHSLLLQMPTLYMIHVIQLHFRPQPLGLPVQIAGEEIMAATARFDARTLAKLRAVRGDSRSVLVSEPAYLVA

T1 sequence (A0ABR6DCX3 entry or part of it): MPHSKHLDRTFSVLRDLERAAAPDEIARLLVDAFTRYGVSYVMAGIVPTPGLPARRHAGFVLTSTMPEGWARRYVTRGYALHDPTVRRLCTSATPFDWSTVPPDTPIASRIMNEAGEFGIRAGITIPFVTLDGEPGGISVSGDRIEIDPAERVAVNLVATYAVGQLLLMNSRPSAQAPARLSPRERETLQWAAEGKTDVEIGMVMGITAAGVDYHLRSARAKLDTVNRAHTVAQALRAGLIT
T2 sequence (A0ABR6DCY1 entry or part of it): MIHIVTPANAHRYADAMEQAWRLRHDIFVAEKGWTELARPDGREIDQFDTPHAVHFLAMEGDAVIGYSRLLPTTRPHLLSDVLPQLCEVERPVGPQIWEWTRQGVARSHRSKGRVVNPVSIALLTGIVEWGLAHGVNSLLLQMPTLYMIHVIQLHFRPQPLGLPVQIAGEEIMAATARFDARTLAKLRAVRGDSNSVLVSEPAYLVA

| Compound | EC50 (MmaR (MmaRDSM5686)) | LC-MS/MS, NMR of culture extract; deletion mutant control (MmaI (Ga0373204_3345)) | EC50 (MmaR (MmaRDSM5686); purified natural signal added, mmaI promoter-mScarlet reporter, agonist) | LC-MS/MS of culture extract after heterologous expression (Mrad2831_5763 (MmaI)) |
| --- | --- | --- | --- | --- |
| CCCCCCCCCC(O)CC(=O)N[C@H]1CCOC1=O (stereo partly shown) [3-OH-C12-HSL] | 1.7 nM | – | – | – |
| CCCCCC/C=C\C[C@@H](O)CC(=O)NC1CCOC1=O (stereo partly drawn) [3R-OH-5Z-C12:1-HSL, N-(3R-hydroxy-5-cis-dodecenoyl)-L-homoserine lactone] | – | this feature was not present in a culture of an in-frame, unmarked deletion mutant | 0.2 nM | we observed a feature with the same m/z, retention time, and fragmentation pattern |
